Structures are written as SMILES.

The term melting point denotes the temperature, or range, at which the solid turns liquid. In turn, `CCC(CC)n1nnc2c(Oc3c(C)cc(C)cc3C)nc(C)c(C)c21` registered a melting point of 127 to 129 °C.

For `Nn1cc(F)c(=O)[nH]c1=O`, the melting point lay in the range of 196 to 199 °C. The same measure for `CCOC(=O)COc1ccc(NC(=O)c2csc(NC(=N)N)n2)cc1`: 206 °C; for `NC(=O)c1cccc(OCc2cccc(O)c2)c1`: 122 to 123 °C; for `COCCc1nc2c(N)nc3c(c2n1CCOCCNC(=O)c1ccccc1)CCCC3`: 141 to 143 °C.

In the case of `COC(=O)c1ccc(/C=C/c2cc3c(cc2CCCO)C(C)(C)CCC3(C)C)cc1`, the melting point was in the range of 109 to 116 °C. Then `COc1ccc(C(=O)c2c(Cc3ccccc3)sc(C)c2C)cc1`, with 85 to 86 °C; and `CCOC(=O)Cc1ccc(-c2nc(COc3ccc(COc4nn(-c5ccccc5)cc4/C=C\c4csc(CC)n4)cc3OC)c(C)o2)cc1`, with 136 to 137 °C. Take `CO[C@@H]1C(S(=O)(=O)c2ccccc2)=C[C@H](C)[C@@H](O[Si](C)(C)C(C)(C)C)[C@@H](C)[C@@H]1O[Si](C)(C)C(C)(C)C`: the melting point was in the range of 94 to 96 °C.

In turn, `O=[N+]([O-])C1CC=CCC1c1ccccc1` (stereo not given) gave a melting point of 114 to 116 °C. Regarding `COc1c(OC2CCC(=O)CC2)ccnc1C`, the melting point lay in the range of 56 to 57 °C. The same measure for `O=C(O)CN1C(=S)c2cccc3c(Br)ccc1c23`: 253 °C; for `COC(=O)c1ccc(CN2CCN(c3nc(C)cs3)C2=O)cc1`: 157 to 158 °C. The same measure for `Cc1cc(C2=C(Cl)CCN(C(=O)c3ccccc3)C2)no1`: 86 to 87 °C; for `COc1ccc(C2=NN(c3cnc4ccccc4n3)C(=O)[C@H]3CC=CC[C@@H]23)cc1Cl` (relative stereo): 172 to 174 °C. Then `CC(=O)Nc1nc(CO)c(Cl)s1`, with 145 to 146 °C; and `CC(=O)N1CCN(c2ccc(Nc3nccc(-c4sc(NCCc5ccccc5)nc4C)n3)cc2)CC1`, with 212 to 213 °C.

`COCCCNc1nc(Cl)cc(Cl)n1` came in with a melting point of 48 °C. Turning to `COc1cccc2c(=O)cc(C=Cc3ccc(C#N)cc3)oc12`, the melting point was in the range of 274 to 275 °C. Compound `COc1ccc(OC)c2c1CCC(O)(CC(=O)O)C2` (stereo not given) came in with a melting point of 112 to 114 °C. Then `CN1CCN(CCCn2c(N)nc3ccccc32)CC1`, with 195 to 197 °C; and `FC(F)(F)c1cccc(CSc2nnc(-c3ccn4ncnc4c3)o2)c1`, with 147 to 148 °C; and `COc1ccc(S(=O)(=O)NC(=N)CCN2CCOC2=O)cc1`, with 115 to 118 °C. The same measure for `C=CCOc1ccc(C=CC(=O)Oc2ccc(OC(=O)C(=C)C)cc2)cc1`: 118 °C.

As to `CC(C)Cn1c(=O)n(C)c(=O)c2c(-c3cccc(-c4nnn[nH]4)c3)n(Cc3cccc4ccccc34)nc21`, the melting point lay within 251 to 254 °C. The same measure for `Clc1ccccc1C1(c2ccc(-c3ccccc3)cc2)CO1` (stereo not given): 70 °C; for `O=c1c2ccccc2[nH]c2c(OCCCCN(CCO)CCO)cccc12`: 124 to 126 °C; for `CCOC(=O)CCNCC(O)COc1ccc(OC)cc1C#N` (stereo not given): 76 °C. In turn, `CCOP(=O)(/C=C/c1cn(-c2ccccc2)nc1OCc1ccc(OCc2nc(N3CCCCC3)sc2C)c(OC)c1)OCC` registered a melting point of 95 to 96 °C. The same measure for `COC[C@H]1CN(c2ccc([C@H]3CC[C@H](C#N)CC3)cc2)C(=O)O1`: 174 °C.

`COc1c(C2CCN(CCCCNC(=O)c3ccc(-c4ccc(C#N)cc4)nc3)CC2)ccc2c1CCCC2` yielded a melting point of 166 to 168 °C. `CCOC(=O)c1[nH]c2cc(Cl)cc(Cl)c2c1NCC(=O)c1ccccc1Cc1ccccc1` came in with a melting point of 225 to 227 °C. Then `CCOC(=O)c1cc2cc(N)ccc2[nH]1`, with 124 to 125 °C; and `COCOc1ccc(COc2cc3c(cc2-c2cc(C=CC(=O)O)ccc2OC)C(C)(C)CCC3(C)C)cc1`, with 106 to 108 °C; and `O=C(Nc1ccccn1)Nc1cccc2c1C1CC3(CCN1C2=O)OCCO3` (stereo not given), with 178 to 180 °C.

For `CO/N=C1\CCc2ccccc2C1=Cc1ccc(S(C)(=O)=O)cc1`, the melting point lay within 175 to 178 °C.

For `CC(C)(C)OC(=O)c1ccsc1NC(=O)Nc1ccc(Oc2ccccc2)cc1`, the melting point was in the range of 203 to 205 °C. The same measure for `COc1cc(O)cc2oc(=O)cc(C)c12`: 261 to 263 °C.

Consider `Cc1ccc(C)c(C(=O)C=Cc2ccccc2C(=O)Cl)c1`, for which the melting point is 96 to 98 °C. The same measure for `OCCNc1nc(Cl)nc2cccc(Br)c12`: 165 to 167 °C; for `N#Cc1cc(CBr)ccc1Cl`: 55 to 58 °C; for `Cc1cc(Cn2cncc2C)cc2c1Cc1c(-c3ccsc3)n[nH]c1-2`: 260 to 264 °C. Then `COc1ccc(-c2ccc(C=NO)cc2)cc1OC1CCCC1`, with 153 °C; and `N#Cc1nc(NCc2cnn(-c3c(Cl)cc(C(F)(F)F)cc3Cl)n2)[nH]c1C#N`, with 213 to 215 °C. The same measure for `COc1ncccc1-c1cccn2nc(Nc3ccc4ncccc4c3)nc12`: 247 to 249 °C; for `O=c1c2cc(F)c(N3CCCC3)nc2n(C2CC2)c(=O)n1OCc1ccccc1`: 184 to 186 °C; for `Nc1cc(=O)n(-c2c(Cl)cc(C(F)(F)F)cc2Cl)[nH]1`: 206 to 207 °C. `O=Cc1ccc2oc(-c3ccc4ccc(Cl)cc4n3)cc2c1`: the melting point lay within 235 to 236 °C. Then `O=C1c2ccccc2C(=O)N1CC#Cc1ccc(Cl)cc1C(O)c1ccccc1F` (stereo not given), with 158 to 160 °C; and `O=C(NC1CCN(CC(O)c2ccccc2)CC1)c1ccccc1` (stereo not given), with 178 to 180 °C; and `COc1ccc(NC(=O)/C=C/c2ccc(C(C)(C)C)cc2)cc1OC`, with 115 to 116 °C. Then `COc1ccc(CC(=O)NC(NC(=NC#N)Nc2ccccc2C)C(C)(C)C)cc1` (stereo not given), with 174 °C; and `Cc1[nH]c(=O)ccc1-c1ccccc1`, with 201 to 208 °C.

Compound `NCCCCn1cnc2c(N)nc3cccnc3c21` displayed a melting point of 161 to 163 °C.

Compound `CCCCCCCNCc1cccc(OCCCNc2nc(N)nn2C)c1` had a melting point of 64 to 65 °C. The same measure for `CCOC(=O)COc1cc2c(cc1Cl)C(=O)CC1(CCCCC1)O2`: 116 to 117 °C. Then `CCc1ccc2c(c1)C=Cc1cc(C)ccc1C2c1cn(Cc2ccc(C(=O)O)o2)c(=O)[nH]c1=S` (stereo not given), with 165 °C; and `O=C(c1cc(O)c(O)c([N+](=O)[O-])c1)c1nc2ccccc2[nH]1`, with 240 to 250 °C; and `O=C(O)CCCCCn1sc2ccccc2c1=O`, with 59 to 61 °C. The same measure for `CCc1cccc(C)c1CNc1ccnc2c1nc(C)n2C`: 105 to 109 °C; for `CC(=O)Oc1ccc2c(c1)Sc1cc(N(C)C)ccc1N2C(C)=O`: 124 to 128 °C; for `Cc1cnc(OCC2CN(C(C)(C)C)C(c3ccccc3)O2)c2cc(Cl)ccc12` (stereo not given): 90 to 92 °C. Compound `CCCCCCCCCCCCCCCCCCOCCSCCOC(=O)N(Cc1ccccn1)C(C)=O` yielded a melting point of 47 to 49 °C.

As for `COc1ccc(C=CC2=NN=C(C)Cc3cc(OC)c(OC)cc32)c(OC)c1`, the melting point lay in the range of 148 to 150 °C. Regarding `CC(NC(=O)c1cc(Cl)ccc1NC(=O)C1CC(O)=NN1c1ncccc1Cl)C1CC1` (stereo not given), the melting point lay within 165 to 167 °C. The same measure for `N#CCCN(C=O)CC(=O)O`: 112 to 114 °C; for `O=C(CCl)N[C@H]1CC[C@H](O)CC1`: 149 to 151 °C; for `CCCCn1c(=O)c2[nH]ncc2n(CCC(C)C)c1=O`: 77 to 79 °C. The same measure for `O=S(=O)(Nc1ccc(Oc2ccc3cccnc3c2)cc1)c1ccc(F)cc1`: 175 to 178 °C; for `BrCc1cccc2c(-c3ccc(Br)cc3)onc12`: 159 to 161 °C; for `COC1C(OC(N)=O)CCC2(CO2)C1C1(C)OC1CC=C(C)C` (stereo not given): 125 to 126 °C. For `O=C(N[C@@H]1CCC[C@H]1O)C(O)=CC(=O)c1cc(Cc2ccc(F)cc2)cn(Cc2ccccc2F)c1=O`, the melting point was 67 to 69 °C. The same measure for `CCn1ncc2c3c4c(nc21)CCc1ccccc1-c4nn3C`: 140 to 141 °C. For the compound `O=C(Nc1ccc(SC(F)(F)F)cc1)c1cc(S(=O)(=O)c2ccccc2)c2ccccc2c1O`, the melting point lay within 271 to 272 °C.

On to `CC(c1oc2ccccc2c(=O)c1-c1cccc(F)c1)n1nc(-c2ccc(OCc3ccccc3)cc2)c2c(N)ncnc21` (stereo not given), for which the melting point was 176 to 178 °C.

In the case of `CCc1nc(N)nc(N)c1N1CCN(Cc2ccccc2)CC1`, the melting point is 174 to 175 °C. In the case of `CCOC(=O)c1ccc2c(c1)C=C(n1ccnc1)CC2`, the melting point was in the range of 113 to 116 °C. The same measure for `O=C1c2ccccc2-n2cnc(C=NO)c2[C@@H]2CCCN12`: 285 °C; for `Cn1cnc(C=CC(=O)NC2CCNC(=O)C2)c1` (stereo not given): 280 to 282 °C. Take `CCCc1c(OCCCOc2ccc3c(c2CCC)OC(CCC(=O)OCC)CC3)ccc(C(C)=O)c1O` (stereo not given): the melting point was in the range of 68 to 70 °C. The same measure for `CS(=O)(=O)c1ccc(-c2cnn(CC(F)(F)F)c(=O)c2Sc2ccc(F)c(Cl)c2)cc1`: 142 to 145 °C. Then `CC(=O)Nc1ccc(S(=O)(=O)CCCl)cc1`, with 188 °C; and `CCCN(CC)Cc1nc2cc(OC)c(OC)cc2c(-c2ccc(OC)c(OC)c2)c1C(=O)OCC`, with 105 to 106 °C. Then `COc1ccc(Br)cc1C(=O)NCCc1ccc(CCC(=O)O)cc1`, with 120 to 121 °C; and `Clc1cccc(Nc2ncnc3[nH]nc(NCc4cccc5c4OCO5)c23)c1`, with 214 to 215 °C; and `CN1CCC(Nc2ccccc2C(=N)c2ccccc2)CC1`, with 117 to 118 °C.

`CCCOc1ccccc1C1N=C2N=NC=C2C(=O)N1` (stereo not given): the melting point is 182 to 184 °C. The same measure for `CN1C(=O)C2CN(Cc3ccncc3)CCN2c2ccccc21` (stereo not given): 252 to 254 °C. Then `CCCC(=O)Nc1n[nH]c2cc(-c3ccc4c(c3)OCO4)ccc12`, with 240 °C; and `Fc1ccc(N2CCC(N3CCc4ccccc43)CC2)cc1`, with 120 to 122 °C.

For the origin of these results see a melting point compilation (Tetko et al.; mined from patent text by program, amines drawn as free bases though some values may be those of a salt).
